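Values below derive from 48-hour exposures of cells grown in 96-well plates, with endpoints linearly interpolated between the two concentrations bracketing the appropriate inhibition level. Here, GI50 denotes the concentration required for 50% inhibition of growth.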 Activity calls are given as the source filed them. Cut-off read from the data, not from the text of the source: active = GI50 up to about 1.1 µM and inactive = higher.
Tests used:
Test in all cases: DTP human tumour cell line panel, 48 h
A498 = test system: A498
A549 = test system: A549
CCRF-CEM = test system: CCRF-CEM
COLO 205 = test system: COLO 205
DLD-1 = test system: DLD-1
DMS-114 = test system: DMS-114
DMS-273 = test system: DMS-273
EKVX = test system: EKVX
HCC 2998 = test system: HCC 2998
HCT-116 = test system: HCT-116
HCT-15 = test system: HCT-15
HL-60 = test system: HL-60
HOP-18 = test system: HOP-18
HOP-62 = test system: HOP-62
HOP-92 = test system: HOP-92
HT-29 = test system: HT-29
IGROV-1 = test system: IGROV-1
K562 = test system: K562
KM-20L2 = test system: KM-20L2
KM12 = test system: KM12
LOX IMVI = test system: LOX IMVI
M19-MEL = test system: M19-MEL
MCF7 = test system: MCF7
MOLT-4 = test system: MOLT-4
Malme-3M = test system: Malme-3M
NCI-H226 = test system: NCI-H226
NCI-H23 = test system: NCI-H23
NCI-H460 = test system: NCI-H460
NCI-H522 = test system: NCI-H522
NCI/ADR-RES = test system: NCI/ADR-RES
OVCAR-3 = test system: OVCAR-3
OVCAR-4 = test system: OVCAR-4
OVCAR-5 = test system: OVCAR-5
OVCAR-8 = test system: OVCAR-8
RPMI-8226 = test system: RPMI-8226
RXF 393 = test system: RXF 393
SF-268 = test system: SF-268
SF-295 = test system: SF-295
SF-539 = test system: SF-539
SK-MEL-28 = test system: SK-MEL-28
SK-MEL-2 = test system: SK-MEL-2
SK-MEL-5 = test system: SK-MEL-5
SK-OV-3 = test system: SK-OV-3
SN12C = test system: SN12C
SNB-19 = test system: SNB-19
SNB-75 = test system: SNB-75
SNB-78 = test system: SNB-78
SW-620 = test system: SW-620
U-251 = test system: U-251
UACC-257 = test system: UACC-257
UACC-62 = test system: UACC-62
UO-31 = test system: UO-31
XF498 = test system: XF498
786-0 = test system: 786-0
ACHN = test system: ACHN
CAKI-1 = test system: CAKI-1
LXFL 529 = test system: LXFL 529
M14 = test system: M14
TK-10 = test system: TK-10

COc1nc(O)c(N)c(NC2OC(CO)C(O)C(O)C2O)n1 (stereo not given)
GI50 (A498): > 100 µM (inactive)
GI50 (A549): > 100 µM (inactive)
GI50 (CCRF-CEM): > 57.8 µM (inactive)
GI50 (COLO 205): > 100 µM (inactive)
GI50 (DLD-1): > 100 µM (inactive)
GI50 (DMS-114): > 100 µM (inactive)
GI50 (DMS-273): > 100 µM (inactive)
GI50 (EKVX): > 100 µM (inactive)
GI50 (HCC 2998): > 100 µM (inactive)
GI50 (HCT-116): > 100 µM (inactive)
GI50 (HCT-15): > 100 µM
GI50 (HL-60): > 82.8 µM (inactive)
GI50 (HOP-18): > 100 µM (inactive)
GI50 (HOP-62): > 100 µM (inactive)
GI50 (HOP-92): > 100 µM (inactive)
GI50 (HT-29): > 100 µM (inactive)
GI50 (IGROV-1): > 100 µM (inactive)
GI50 (K562): > 90.8 µM (inactive)
GI50 (KM-20L2): > 100 µM (inactive)
GI50 (KM12): > 100 µM (inactive)
GI50 (LOX IMVI): > 100 µM (inactive)
GI50 (M19-MEL): > 100 µM (inactive)
GI50 (MCF7): > 100 µM (inactive)
GI50 (MOLT-4): > 100 µM (inactive)
GI50 (Malme-3M): > 100 µM (inactive)
GI50 (NCI-H226): > 31.6 µM (inactive)
GI50 (NCI-H23): > 100 µM (inactive)
GI50 (NCI-H460): > 100 µM (inactive)
GI50 (NCI-H522): > 100 µM (inactive)
GI50 (NCI/ADR-RES): > 100 µM (inactive)
GI50 (OVCAR-3): > 100 µM (inactive)
GI50 (OVCAR-4): > 100 µM (inactive)
GI50 (OVCAR-5): > 100 µM (inactive)
GI50 (OVCAR-8): > 100 µM (inactive)
GI50 (RPMI-8226): > 100 µM (inactive)
GI50 (RXF 393): > 100 µM (inactive)
GI50 (SF-268): > 100 µM (inactive)
GI50 (SF-295): > 100 µM (inactive)
GI50 (SF-539): > 100 µM (inactive)
GI50 (SK-MEL-28): > 100 µM (inactive)
GI50 (SK-MEL-2): > 100 µM (inactive)
GI50 (SK-MEL-5): > 100 µM (inactive)
GI50 (SK-OV-3): > 100 µM (inactive)
GI50 (SN12C): > 100 µM (inactive)
GI50 (SNB-19): > 100 µM (inactive)
GI50 (SNB-75): > 100 µM (inactive)
GI50 (SNB-78): > 100 µM (inactive)
GI50 (SW-620): > 100 µM (inactive)
GI50 (U-251): > 100 µM (inactive)
GI50 (UACC-257): > 100 µM (inactive)
GI50 (UACC-62): > 100 µM (inactive)
GI50 (UO-31): > 100 µM (inactive)
GI50 (XF498): > 100 µM (inactive)

N#CNC1=NC(CCCC(=O)Nc2cccc([N+](=O)[O-])c2)=C(c2nc3ccccc3[nH]2)C(N)N1 (stereo not given)
GI50 (786-0): > 100 µM (inactive)
GI50 (A549): > 100 µM (inactive)
GI50 (ACHN): > 100 µM (inactive)
GI50 (CAKI-1): > 100 µM (inactive)
GI50 (CCRF-CEM): > 100 µM (inactive)
GI50 (COLO 205): > 100 µM (inactive)
GI50 (DLD-1): > 100 µM (inactive)
GI50 (DMS-114): > 100 µM (inactive)
GI50 (DMS-273): > 100 µM (inactive)
GI50 (EKVX): > 100 µM (inactive)
GI50 (HCC 2998): > 100 µM (inactive)
GI50 (HCT-15): 76.7 µM
GI50 (HL-60): > 100 µM (inactive)
GI50 (HOP-18): 64.9 µM (inactive)
GI50 (HOP-62): > 100 µM (inactive)
GI50 (HT-29): > 100 µM (inactive)
GI50 (IGROV-1): > 100 µM (inactive)
GI50 (K562): > 100 µM (inactive)
GI50 (KM-20L2): > 100 µM (inactive)
GI50 (KM12): > 100 µM (inactive)
GI50 (LOX IMVI): > 100 µM (inactive)
GI50 (LXFL 529): > 100 µM (inactive)
GI50 (M14): > 100 µM (inactive)
GI50 (M19-MEL): > 100 µM (inactive)
GI50 (MOLT-4): > 100 µM (inactive)
GI50 (Malme-3M): > 100 µM (inactive)
GI50 (NCI-H226): > 100 µM (inactive)
GI50 (NCI-H23): > 100 µM (inactive)
GI50 (NCI-H460): > 100 µM (inactive)
GI50 (NCI-H522): > 100 µM (inactive)
GI50 (OVCAR-3): > 100 µM (inactive)
GI50 (OVCAR-4): > 100 µM (inactive)
GI50 (OVCAR-5): > 100 µM (inactive)
GI50 (OVCAR-8): > 100 µM (inactive)
GI50 (RPMI-8226): > 100 µM (inactive)
GI50 (RXF 393): > 100 µM (inactive)
GI50 (SF-268): > 100 µM (inactive)
GI50 (SF-295): > 100 µM (inactive)
GI50 (SF-539): > 100 µM (inactive)
GI50 (SK-MEL-28): > 100 µM (inactive)
GI50 (SK-MEL-2): > 100 µM (inactive)
GI50 (SK-MEL-5): > 100 µM (inactive)
GI50 (SK-OV-3): > 100 µM (inactive)
GI50 (SN12C): > 100 µM (inactive)
GI50 (SNB-19): > 100 µM (inactive)
GI50 (SNB-75): > 100 µM (inactive)
GI50 (SW-620): > 100 µM (inactive)
GI50 (TK-10): > 100 µM (inactive)
GI50 (UACC-257): > 100 µM (inactive)
GI50 (UACC-62): > 100 µM (inactive)
GI50 (UO-31): > 100 µM (inactive)
GI50 (XF498): > 100 µM (inactive)
